In US7592003B2, “Regulation of toll-like receptors on stem cells” (Oklahoma Medical Research Foundation, priority 2005, dated 2009):

Columns and labels:
LKS^− cells = assay: Serum-free culture of LKS- myeloid/erythroid progenitors (and CMP, GMP subsets), F4/80 by flow cytometry; assay type: cell-based, mouse; conditions: 72 h, compared with CSF stimulation
Description: FIGS. 4A-D—Activation of TLRs through MyD88 bypasses normal differentiation cues and drives monocytes/macrophages differentiation of myeloid progenitors. (FIG. 4A) Sorted LKS^− cells from C57BL/6 or MyD88^−/− mice were stimulated with medium alone, LPS (10 μg/ml), Pam3CSK4 (1 μg/ml), M-CSF, or GM-CSF. After 72 h in culture, cells were analyzed by flow cytometry for expression of F4/80. Open histograms depict staining with the isotype matched Ab for F4/80. Percentages given in each histogram indicate the frequencies of F4/80^+ cells and the results are representative of three independent experiments. (FIG. 4B) The bar graph depicts yields, i.e., numbers of F4/80^+ cell recovered per input progenitor. Data represent mean values with standard deviations from triplicate cultures and the results are representative of three independent experiments (*P<0.005). […] After 72 h in culture, cells were analyzed by flow cytometry for expression of F4/80. […] After 24 or 48 h in culture, cells were analyzed by flow cytometry for expression of F4/80. […]
FIG. 13—TLR stimulation causes rapid production of F4/80^+ cells from LKS^− cells. […] Stimulated wells were analyzed after 24 h or 48 h of culture by flow cytometry for expression of F4/80. […]

CLP = assay: Single cell culture of TLR ligand pre-treated CLP on OP9 stromal cells; assay type: cell-based, mouse; conditions: 24 h pre-treatment, 10 days on OP9
Description: FIG. 7—Altered differentiation patterns of single lymphoid progenitors activated via TLRs. Sorted CLP were cultured in the presence of SCF, FL and IL-7 with medium alone, LPS (10 μg/ml) or Pam3CSK4 (1 μg/ml). After 24 h, cultured cells were harvested and washed three times with medium. Single cultured cells were then sorted and re-cultured on OP9 stromal cells in 96-well plates for 10 days in the presence of SCF, FL and IL-7. Positive colonies were examined by flow cytometry (representative examples shown on top row). The frequencies of wells with each of these differentiation patterns are shown along with total numbers of clones observed.
Single cell culture on OP9 stromal cells. Sorted CLP were cultured with X-VIVO15in the presence of SCF (20 ng/ml), FL (100 ng/ml) and IL-7 (1 ng/ml) with or without LPS (10 μg/ml), or Pam3CSK4 (1 μg/ml). After 24 h, cultured cells were harvested and washed with medium three times. A single cell sorting for the cultured cells was then conducted on a FACSAria™ and a single cell was plated on OP9 stromal cells in 96-well plate and cultured for 10 days in the presence of SCF (20 ng/ml), FL (100 ng/ml) and IL-7 (1 ng/ml). […] Positive wells (more than 30 cells) were determined by microscopic observation. Cells were harvested and then stained with mAbs to CD19, CD11c, and Mac-1 and analyzed by flow cytometry. […]

For Pam3CSK4, the “Yields of F4/80+ cells from LKS- cells” value (LKS^− cells) was “consistently a less potent stimulus”, the “Numbers of pure CD19+ B cell clones” value (CLP) was “did not alter the production of CD19^+ B cell clones” and the “Numbers of pure mDC colonies” value (CLP) was “enhanced production of colonies with pure mDC”.
